The subject of series [1] is SARS-CoV-2. The following applies: White et al. 2021; result in words; cited from earlier work.
Series [2] relates to TGEV. Kind of series: Quantitation of TGEV-induced cell death in ST cells by real-time automated microscopy (Cytotox). The following applies: for EC50: read-out: EC50 on TGEV-induced cell death; for activity against TGEV (reversion of TGEV-induced cell death): MOI 0.01, 48 h, result in words; for bottom plateau, dead cells: TGEV MOI 0.01, 48 h, dose-response fit. Type of series: cell-based, transmissible gastroenteritis virus (TGEV).

The subject of series [3] is TGEV. Kind of series: TGEV viral titration by plaque assay in ST cells. Type of series: cell-based, transmissible gastroenteritis virus (TGEV). The protocol: ST cells were inoculated with TGEV at a MOI of 0.01 infectious particles per cell and, after 24 h of incubation under standard culture conditions, the culture medium was subjected to the plaque assay, which determines the number of viral infectious particles present per volume unit (viral titer). A range of SPL-0 concentrations was tested in order to obtain a dose-response curve. The TGEV titer in the harvested medium decreased as the SPL-0 dose increased (Figure 6).

The test system of series [4] is TGEV. Kind of series: TGEV RNA quantitation by RT-qPCR in ST cells. It counts as cell-based, transmissible gastroenteritis virus (TGEV). The procedure:
ST cells were inoculated with TGEV at a MOI of 0.01 infectious particles per cell and, after 24 h of incubation under standard culture conditions, total RNA was extracted and TGEV RNA was quantified by RT-qPCR. A range of SPL-0 concentrations was tested in order to obtain a dose-response curve. The amount of TGEV RNA decreased as the SPL-0 dose increased (Figure 7).
In general terms: In qPCR the cycle at which signal appears reflects the starting amount.

A further series has as its system MHV. Briefly: MHV RNA quantitation by RT-qPCR in CCL9.1 cells. It counts as cell-based, murine hepatitis virus (MHV).
The next series relates to OC43. Briefly: OC43 RNA quantitation by RT-qPCR in BHK-21 cells. It counts as cell-based, human coronavirus OC43.
Series [5] concerns SARS-CoV-2. Kind of series: SARS-CoV-2 infection quantified by immunofluorescence (flow cytometry) in VeroE6 cells. Type of series: cell-based. The protocol: (§1) To determine the activity of SPL-0 against SARS-CoV-2, a dose-response assay was performed in the range of 0.2 µM to 50 µM using VeroE6 kidney cells from African green monkey (Cercopithecus aethiops). Cell cultures were inoculated with SARS-CoV-2 at an MOI of 0.01 infectious particles per cell and analyzed after 48 h. The percentage of infected cells was obtained by flow cytometry using a monoclonal antibody against the virus spike protein S as well as a fluorescently labelled secondary antibody (immunofluorescence). The percentage of infected cells decreased as the SPL-0 increased (Figure 8a). […] In addition, for each dose, cell viability assays were performed in the absence of virus. For this, the MTT assay, a standard procedure for determining cell metabolic activity, was used.
For orientation: Flow cytometry measures light scatter and fluorescence of single cells or particles in a stream.

For series [6], the system named is SARS-CoV-2. Briefly: SARS-CoV-2 infection quantified by immunofluorescence (flow cytometry) in A549 cells. It counts as cell-based. The protocol:
as §1, with “The” for “To determine the”, “SARS-CoV-2 was determined in A549 human lung cells, which provide a biologically relevant model, since that lungs are a primary target of SARS-CoV-2. For this,” for “SARS-CoV-2,”, “µM.” for “µM using VeroE6 kidney cells from African green monkey (Cercopithecus aethiops).”, “72” for “48”, “9a).” for “8a).”, “assay” for “assay, a standard procedure for determining cell metabolic activity,”

Another series concerns CVB3. Kind of series: CVB3 viral titration by plaque assay in HeLa cells. Type of series: cell-based, coxsackievirus B3 (CVB3). The protocol: CVB3 belongs to the picornavirus family. […] Coronaviruses and picornaviruses share certain broad features. Both are plus-strand RNA viruses. However, they are otherwise largely unrelated virus groups. The effect of SPL-0 on CVB3 infection was determined in human HeLa cells. HeLa cells were inoculated with CVB3 at a MOI of 0.01 infectious particles per cell and, after 24 h of incubation under standard culture conditions, the medium was subjected to the plaque assay, which determines the number of viral infectious particles present per volume unit (viral titer). A range of SPL-0 concentrations was to obtain a dose-response curve. The CVB3 titer in the harvested medium decreased as the SPL-0 dose increased (Figure 10). […] Therefore, the antiviral action of SPL-0 extends beyond coronaviruses.

The next series deals with swine testis (ST) cells. The following applies: dose range 2-100 µM.
The test system of a further series is VeroE6 kidney cells. The following applies: MTT, 0.2 µM to 50 µM.
The next series relates to A549 human lung cells. The following applies: MTT, 0.2 µM to 50 µM.
Series [7] in a line: in vitro. Conditions: pig, st cells.
The nature of series [8]: in vitro. Conditions: african green monkey, veroe6 cells.
A short description of series [9]: in vitro. The following applies: human, a549 cells.
Where [10] appears, read: relative to untreated control, dose-response fit.
[11] abbreviates: Alphacoronavirus 1, ST cells, MOI 0.01, 48 h after viral inoculation.

Where “and” joins values, the source holds several entries; their conditions need not be identical. Equal entries are not always repeated. Entries after “also recorded” stand apart in the source; their conditions may differ. Numbered stars: 1 amine (or outer) side, 2 acyl side, 3 side chain; on linkers, the order of the positions; unused ones are H or OH. Bridge positions count the residues as written; N and C are the ends. Square brackets hold non-standard residues; d marks the D form. Peptide text beside a SMILES is read from it. * marks the point of attachment. X1 = CC[C@H](C)[C@@H](N[*:1])[C@@H](O)CC(=O)O[C@H](C(=O)[C@H](C)C(=O)[*:2])C(C)C; NMeY = CN[C@@H](Cc1ccc(O)cc1)C(=O)O; dNMeL = CN[C@H](CC(C)C)C(=O)O; Pyruvoyl = CC(=O)C(=O)*

Consider `CC[C@H](C)[C@H]1NC(=O)[C@@H](NC(=O)[C@@H](CC(C)C)N(C)C(=O)[C@@H]2CCCN2C(=O)C(C)=O)[C@@H](C)OC(=O)[C@H](Cc2ccc(OC)cc2)N(C)C(=O)[C@@H]2CCCN2C(=O)[C@H](CC(C)C)NC(=O)[C@@H](C)C(=O)[C@H](C(C)C)OC(=O)C[C@@H]1O` [Aplidin, plitidepsin] (Pyruvoyl-P[dNMeL]T[X1]LP[NMeY](Me); ester 3-C), for which the “in vitro activity against SARS-CoV-2” value in the series with SARS-CoV-2 [1] is “potent in vitro activity”.
As for `C[C@@H]1O[C@@H](Cc2ccccc2)CC1[Si](c1ccccc1)(c1ccccc1)c1ccccc1` (some centres unmarked) [SPL-0], the EC50 in the series on TGEV [2] (Alphacoronavirus 1, 48 h) was 13.1 µM; in the series with TGEV [3] (Alphacoronavirus 1, viral titration (plaque assay), ST cells, MOI 0.01, 24 h, read-out: EC50 against TGEV) it was 15.6 µM; with TGEV [4] (Alphacoronavirus 1, RT-qPCR, ST cells, MOI 0.01, 24 h, read-out: EC50 against TGEV) it was 4.35 µM; in the series on MHV (Murine coronavirus, RT-qPCR, inferred from single dose 20 µM, read-out: EC50 against MHV) it was less than 20 µM; in the series with OC43 (Betacoronavirus 1, OC43, RT-qPCR, inferred from single dose 20 µM, read-out: EC50 against OC43), less than 20 µM; in the series with SARS-CoV-2 [5] (Severe acute respiratory syndrome coronavirus 2, Vero C1008, immunofluorescence, MOI 0.01, 48 h, read-out: EC50 against SARS-CoV-2 in VeroE6 cells), 27.5 µM. The EC50 came out at 12.9 µM with SARS-CoV-2 [6] (Severe acute respiratory syndrome coronavirus 2, A549, immunofluorescence, MOI 0.01, 72 h, read-out: EC50 against SARS-CoV-2 in A549 cells) and 2.95 µM in the series with CVB3 (Enterovirus B, CVB3, viral titration (plaque assay), HeLa cells, MOI 0.01, 24 h, read-out: EC50 against CVB3). In the series with TGEV [2] (ST cells), the “activity against TGEV (reversion of TGEV-induced cell death)” value (“activity against TGEV” for short) is on record as “partially reverts TGEV-induced cell death; also recorded: Active”. Also, the “bottom plateau, dead cells” value with TGEV [2] (ST cells) came out at 16.1%. Further, the “bottom plateau, estimated viral titer” value with TGEV [3] (setting [10]) and in the series on CVB3 (setting [10]) was 0% in each case. In addition, in the series with TGEV [4] (setting [10]), the “bottom plateau, viral RNA” value is given as 0%. The “amount of MHV RNA, % of the amount obtained in control cultures receiving no drug” value in the series on MHV (20 µM, MOI 0.01, 24 h) is recorded as 17.0 ± 2.4%. Besides, the “amount of OC43 RNA, % of the amount obtained in control cultures receiving no drug” value with OC43 (20 µM, MOI 0.01, 4 days) turned out to be 4.16 ± 0.95%. For the same compound, the “bottom plateau, infected cells” value with SARS-CoV-2 [5] (VeroE6 cells, dose-response fit) is reported as 1.6%. Further, the “estimated bottom plateau, infected cells” value in the series on SARS-CoV-2 [6] (A549 cells, dose-response fit) is given as -0.37%. In the series with swine testis (ST) cells (ST cell cultures not inoculated with TGEV), the “percentage of dead cells at 48 h” value was < 12% and 2.5-12.0%. Further, the cytotoxic effects entry in the series on swine testis (ST) cells (ST cells, no virus, result in words) was “no detectable cytotoxic effects”; in the series with VeroE6 kidney cells (VeroE6 cells, result in words) it was “no cytotoxic effects”; with A549 human lung cells (A549 cells, result in words), “no cytotoxic effects”. Moreover, the “percentage of viable cells at 48 h” value in the series on VeroE6 kidney cells (uninfected VeroE6 cells) was > 85% and 85.0-93.3%; in the series with A549 human lung cells (uninfected A549 cells) it was > 89% and 89.0-100%. Also, the CC50 at 48 h in the series “in vitro [7]” is greater than 100 µM; in the series “in vitro [8]”, greater than 50 µM; in the series “in vitro [9]”, greater than 50 µM.
Turning to `CCCCCCCCCC[C@H]1CC([Si](c2ccccc2)(c2ccccc2)c2ccccc2)[C@H](C)O1` (stereo partly drawn) [SPL-1, 2,5-trans-(5-decyl-2-methyltetrahydrofuran-3-yl)triphenylsilane], the “activity against TGEV” value in the series with TGEV [2] (ST cells) is recorded as “did not revert TGEV-induced cell death; also recorded: Inactive”.
For `C[C@H]1OC[C@@H](c2ccccc2)[C@H]1[Si](c1ccccc1)(c1ccccc1)c1ccccc1` [SPL-4], in the series with TGEV [2] (setting [11]), the EC50 came out at 15.8 µM. In the series on TGEV [2] (ST cells), the “activity against TGEV” value was “partially reverts TGEV-induced cell death; also recorded: Active” and the “bottom plateau, dead cells” value is 11.4%.
As to `C[C@@H]1O[C@@H](Cc2ccccc2)CC1[Si](C)(C)C` (some centres unmarked) [SPL-5], in the series with TGEV [2] (ST cells), the “activity against TGEV” value is “did not revert TGEV-induced cell death; also recorded: Inactive”.
Consider `CC(C)C[C@H]1C[C@@H]([Si](c2ccccc2)(c2ccccc2)c2ccccc2)[C@H](CCCCl)O1` [SPL-6], for which the EC50 with TGEV [2] (setting [11]) worked out at 30.5 µM. Further, in the series on TGEV [2] (ST cells), the “activity against TGEV” value is on record as “partially reverts TGEV-induced cell death; also recorded: Active” and the “bottom plateau, dead cells” value is 14.8%.

In general, EC50 refers to the concentration at which the effect is half-maximal. The CC50 is the concentration giving 50% cytotoxicity. A high value points to better tolerance by the cells.

The record behind these values is patent publication EP4166560A1, “TRI-SUBSTITUTED TETRAHYDROFURANS AND USE THEREOF” (Consejo Superior de Investigaciones Cientificas, priority 2021, dated 2023).
